# According to patent US20210186972A1, “FORMULATIONS AND METHODS FOR THE PREVENTION AND TREATMENT OF TUMOR METASTASIS AND TUMORIGENESIS” (THE UNITED STATES OF AMERICA, AS REPRESENTED BY THE …, priority 2018, published 2021):
# Key:
# [1] = tested on: normal mouse hepatocytes; assay: Nucleolar volume by EM in normal liver tissue; format: in vivo; settings: treated normal mouse hepatocytes
# Experimental: FIGS. 49A-49C are graphs showing quantitative evaluation of the EM images of FIG. 48.
# The nucleolar disruption was reversible within 48 hours upon withdrawal of metarrestin (FIG. 47). Similar disruptions were observed among other treated cell lines, including PANC1 and PC3M cells (FIG. 48), primary tumor, and liver metastatic tissues in the PANC1 xenograft model (FIG. 21, right panels). […] The segregation of the nucleolar compartments observed by EM is believed to correspond to the nucleolar capping structures detected by immunofluorescence of nucleolar proteins (FIGS. 21A-21C, 23, and 50). The coupling of nucleolar segregation with PNC loss was confirmed across several cell lines by immunolabeling with antibodies against the nucleolar Pol I transcription initiation factors, UBF (upstream binding transcription factor) (FIGS. 23 and 50), or Pol I polymerase, RPA194 (FIG. 51). Factors involved in ribosome maturation, such as fibrillarin or NOPP140 (FIGS. 51 and 52) were similarly reorganized. In contrast, UBF distribution was not changed when the normal human fibroblast GM02153 cell line was treated with metarrestin at the same concentration (FIG. 53).
# [2] = tested on: RPA194 and UBF occupancy on rDNA; assay: Quantitative ChIP on rDNA; format: cell-based; settings: HeLa cells
# Experimental: ChIP-qPCR: 2-5×10^7 cells were used for each ChIP assay according to previously described protocols. Briefly, HeLa cells with or without metarrestin treatment were crosslinked with 1% formaldehyde for 10 min at room temperature with rotation, and then crosslinking was quenched by the addition of glycine. Fixed chromatin was sonicated by Covaris and used for immunoprecipitation with the indicated antibody. Isolated DNA was analyzed by qPCR using SYBR green on CFX Connect Real-Time PCR Detection System (BioRad). The comparative cycle threshold method was applied to evaluate occupancy from replicate PCR reactions relative to the level of input. […]
# Psoralen crosslinks active accessible DNA under UV light without displacing nucleosomes or transcription factors, or changing chromatin states. […] To examine the interactions between Pol I transcription factors and rDNA, quantitative ChIP experiments were carried out using primer sets across promoter and coding regions of rDNA (FIG. 29-30E).
# [3] = tested on: KPC mice; assay: Veterinary histopathology and clinical chemistry, KPC mice; format: in vivo
# [4] = female, KPC, mouse, in vivo, 3 months
# [5] = male, KPC, mouse, in vivo, 3 months
smiles,measurement,setting,value
N=c1c2c(-c3ccccc3)c(-c3ccccc3)n(Cc3ccccc3)c2ncn1[C@H]1CC[C@H](O)CC1 [metarrestin],Nucleolar volume,[1],not changed
same,UBF binding to rDNA,[2],without significant impact on UBF binding
same,RPA194 occupancy on rDNA promoter and coding regions,[2]; p<0.01,significantly reduced RPA194 occupancy
same,Ileum segmented filamentous bacteria,[3]; KPC-Metarrestin Female F01,3/3
same,Ileum segmented filamentous bacteria,[3]; KPC-Metarrestin Male M01,4/4
same,"Adrenal hyperplasia, subcapsular cell",[3]; [4],2/3
same,Duodenum dilatation,[3]; [4],3/3
same,"Femur marrow hyperplasia, granulocytic",[3]; [4],1/3
same,"Gall Bladder hyperplasia, papillary",[3]; [4],3/3
same,Kidney hydronephrosis,[3]; [4],1/3
same,Kidney mineralization,[3]; [4],1/3
same,Liver deformity,[3]; [4],1/3
same,"Liver inflammation, subacute",[3]; [4],3/3
same,Lung lymphocytic infiltrate,[3]; [4],3/3
same,"Pancreas duct, dilation",[3]; [4],3/3
same,"Pancreas neoplasm, graded",[3]; [4],3/3
same,Salivary Gland lymphocytic infiltrate,[3]; [4],2/3
same,"Spleen extramedullary hematopoiesis, erythrocytic, increased erythropoiesis",[3]; [4],1/3
same,Spleen fibrosis,[3]; [4],1/3
same,Spleen melanin,[3]; [4],1/3
same,"Stomach, glandular, hyperplasia, foveolar cells",[3]; [4],3/3
same,Thyroid ectopic thymus,[3]; [4],1/3
same,"Vertebra hyperplasia, granulocytic, marrow",[3]; [4],1/3
same,Adrenal lipogenic pigment,[3]; [5],3/4
same,Cecum proliferative typhlitis,[3]; [5],1/4
same,Duodenum dilatation,[3]; [5],1/4
same,"Duodenum hyperplasia, crypt",[3]; [5],1/4
same,"Femur marrow hyperplasia, granulocytic",[3]; [5],4/4
same,"Gall Bladder hyperplasia, papillary",[3]; [5],4/4
same,"Heart dilation, atrium",[3]; [5],1/4
same,Heart mineralization,[3]; [5],1/4
same,Kidney mineralization,[3]; [5],1/4
same,Kidney vacuolation. proximal tubule,[3]; [5],1/4
same,"LN, mandibular hyperplasia, lymphoid",[3]; [5],1/4
same,"LN, mandibular plasmacytosis",[3]; [5],1/4
same,"Liver inflammation, subacute",[3]; [5],2/4
same,Liver lymphocytic infiltrate,[3]; [5],2/4
same,Lung lymphocytic infiltrate,[3]; [5],3/4
same,"Pancreas duct, dilation",[3]; [5],4/4
same,"Pancreas neoplasm, graded",[3]; [5],4/4
same,"Skin/Subcutis inflammation, chronic active",[3]; [5],1/4
same,"Spleen extramedullary hematopoiesis, erythrocytic, increased erythropoiesis",[3]; [5],1/4
same,Spleen fibrosis,[3]; [5],2/4
same,"Stomach, glandular, hyperplasia, foveolar cells",[3]; [5],2/4
same,"Stomach, nonglandular, erosion",[3]; [5],1/4
same,"Thyroid hyperplasia, papillary",[3]; [5],1/4
same,"Vertebra hyperplasia, granulocytic, marrow",[3]; [5],4/4
same,Histopathological or laboratory abnormalities,"[3]; mouse, in vivo, 10 mg/kg",failed to discern any histopathological or laboratory abnormalities
same,Histopathological or laboratory abnormalities,"[3]; mouse, in vivo, po, 25 mg/kg",failed to discern any histopathological or laboratory abnormalities
